Assay results: patent US20260083122A1, “METHOD AND AGENT FOR INACTIVATING BACTERIA OR VIRUSES, AND ANTIVIRAL BASE MATERIAL USING SAME” (NISSAN MOTOR CO., LTD., priority 2022, published 2026)
Where two headings read alike, the source gives them in different places.

Experiments:
[1] = Standard redox potential by cyclic voltammetry; format: physicochemical; conditions: reference electrode Ag/Ag^+, sweep rate 50 mV/s
Description: The standard redox potential is measured by cyclic voltammetry (CV) under a temperature condition of 25° C. At this time, the measurement is performed by a three-electrode method using a glassy carbon electrode (inner diameter: 3 mm) as a working electrode, a reference electrode (Ag/Ag^+), and a counter electrode (platinum wire), and the sweep rate of the potential is 50 mV/s. It is noted that the hydroxyamine forms of the compounds of the present invention are generally unstable and rapidly oxidized into nitroxyl radical forms. Thus, the value of the standard redox potential measured by the above method is the value between the nitroxyl radical form and the oxoammonium form.
In the cyclic voltammogram shown in FIG. 1, the cyclic voltammogram was stably maintained even after repeating 100 or more cycles of measurement, and thus it is observed that the compound of the present aspect has very high durability as an oxidizing agent.

[2] = target: T1, S-RBD-His(WT) (SARS-CoV-2 Spike Protein (RBD)) (Severe acute respiratory syndrome coronavirus 2, UniProt P0DTC2)
[3] = tested on: feline coronavirus (FCov (VR-989)); format: cell-based; conditions: FCoV dilution series incubated with compound at room temperature for 2 hours; CRFK cells, 2 days culture
[4] = tested on: feline coronavirus (FCov (VR-989)); assay: Antiviral effect of AZADO (CPE method; incubation at 37° C.); format: cell-based
[5] = tested on: feline coronavirus (FCov (VR-989)); format: cell-based; conditions: for Positive rate (CPE) / Number of wells when CPE is positive: 3 days culture
[6] = tested on: feline coronavirus (FCov (VR-989)); assay: Cell viability by WST-8 method in the 25° C. incubation experiment; format: cell-based; conditions: cells cultured for 3 days after sample addition and medium replacement; virus alone about 50%
[7] = target: T2, ovalbumin (OVA) (Gallus gallus, UniProt P01012); assay: Degradation activity on ovalbumin (electrophoresis, CBB staining); format: biochemical; conditions: room temperature for 24 hours
T2 sequence (P01012 1-386): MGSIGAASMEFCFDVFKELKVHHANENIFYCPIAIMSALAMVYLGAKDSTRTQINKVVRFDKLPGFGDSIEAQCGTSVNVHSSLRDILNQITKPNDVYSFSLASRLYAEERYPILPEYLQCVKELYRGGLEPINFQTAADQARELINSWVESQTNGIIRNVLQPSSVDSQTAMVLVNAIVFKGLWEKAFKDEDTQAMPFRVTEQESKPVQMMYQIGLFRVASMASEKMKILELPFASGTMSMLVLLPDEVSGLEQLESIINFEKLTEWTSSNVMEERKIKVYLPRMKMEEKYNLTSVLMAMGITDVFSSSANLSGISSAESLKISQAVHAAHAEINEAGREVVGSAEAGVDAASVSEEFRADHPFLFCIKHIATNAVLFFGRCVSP

[8] = tested on: Escherichia coli (DH5a strain; AMP+); assay: Measurement of minimum inhibitory concentration (MIC) against Escherichia coli (colony count); format: cell-based; conditions: for CFU relative value: Comparative Example (0 mM) is 100
Description: First, Escherichia coli (DH5a strain; AMP+) was cultured with shaking in LB medium for 20 hours, and the obtained culture solution was used as an Escherichia coli stock solution. Then, the Escherichia coli stock solution was diluted 1000 times with PBS to obtain a diluted solution. In addition, this diluted solution was used as a comparative example.
On the other hand, AZADO^+NO3^− was added to the diluted solution obtained above to have a final concentration of 1 μM, 10 μM, 100 μM, 1 mM, or 10 mM, respectively, and the obtained mixture was allowed to stand at room temperature for 15 minutes. Thereafter, for the purpose of deactivating AZADO^+NO3^−, the diluted solution was further diluted 10 times using LB medium as a reaction stop solution. Finally, 25 μL of the reaction solution obtained in this manner was applied to LB agar medium, and cultured at 37° C. for 1 day. Then, the number of colonies on the agar medium after culture was counted, and the colony forming unit (CFU/mL) per mL was calculated. In addition, the “CFU relative value” described in Table 3 is a relative value when the value of the colony forming unit of Comparative Example is 100.

[9] = target: T1, S-RBD-His(WT) (SARS-CoV-2 Spike Protein (RBD)); remark: listed apart in the source
[10] = tested on: Escherichia coli ATCC 43895, serotype 0157:H7
[11] = tested on: Staphylococcus aureus subsp. aureus NBRC 12732
[12] = tested on: Penicillium citrinum (NBRC 6352)

1,3-dimethyl AZADO
standard redox potential (E^0@25° C.) between the nitroxyl radical form and the oxoammonium form [1]: 136 mV

CC12CC3CC(CC(C3)N1[O])C2 [1-methyl AZADO]
standard redox potential (E^0@25° C.) between the nitroxyl radical form and the oxoammonium form [1]: 186 mV

CC(=O)NC1CC(C)(C)[N+](=O)C(C)(C)C1.F[B-](F)(F)F [4-AcNH-TEMPO^+BF4^−]
activity compared among the compounds (peak shift, MFI) [2]: almost equally strong | antiviral activity (MFI) on extended treatment time [2]: showed higher antiviral activity

[O]N1C2CC3CC(C2)CC1C3 [AZADO, 2-azaadamantane-N-oxyl]
standard redox potential (E^0@25° C.) between the nitroxyl radical form and the oxoammonium form [1]: 236 mV

O=[N+]([O-])[O-].O=[N+]1C2CC3CC(C2)CC1C3 [AZADO-Oxo]
cell viability (WST-8 method) [3]: recovery of cell viability decreased by virus addition was observed | logTCID50 ([4]; AZADO-Oxo 2 mM added, 37° C. 2 hours (no AZADO-Oxo: 5.2)): 2.4 | TCID50 ([4]; AZADO-Oxo 2 mM added, 37° C. 2 hours (no AZADO-Oxo: 142262)): 253 | viral load reduced to (fraction) ([4]; AZADO-Oxo 2 mM, 37° C. 2 hours): about 1/1000 | Δ log TCID50 ([4]; AZADO-Oxo 2 mM, 37° C. 2 hours, 5.2-2.4): 2.8 | Positive rate (CPE) ([4]; AZADO-Oxo 2 mM, 37° C. 2 hours, viral load 10^−1): 0% | Number of wells when CPE is positive ([4]; AZADO-Oxo 2 mM, 37° C. 2 hours, viral load 10^−1, 8 wells): 0 | Positive rate (CPE) ([4]; AZADO-Oxo 2 mM, 37° C. 2 hours, viral load 10^−2): 0% | Number of wells when CPE is positive ([4]; AZADO-Oxo 2 mM, 37° C. 2 hours, viral load 10^−2, 8 wells): 0 | Positive rate (CPE) ([4]; AZADO-Oxo 2 mM, 37° C. 2 hours, viral load 10^−3): 0% | Number of wells when CPE is positive ([4]; AZADO-Oxo 2 mM, 37° C. 2 hours, viral load 10^−3, 8 wells): 0 | Positive rate (CPE) ([4]; AZADO-Oxo 2 mM, 37° C. 2 hours, viral load 10^−4): 0% | Number of wells when CPE is positive ([4]; AZADO-Oxo 2 mM, 37° C. 2 hours, viral load 10^−4, 8 wells): 0 | Positive rate (CPE) ([4]; AZADO-Oxo 2 mM, 37° C. 2 hours, viral load 10^−5): 0% | Number of wells when CPE is positive ([4]; AZADO-Oxo 2 mM, 37° C. 2 hours, viral load 10^−5, 7 wells): 0 | Positive rate (CPE) ([4]; AZADO-Oxo 2 mM, 37° C. 2 hours, viral load (relative value) 1): 0% | Number of wells when CPE is positive ([4]; AZADO-Oxo 2 mM, 37° C. 2 hours, viral load (relative value) 1, 7 wells): 0 | change of cell form to a round shape by virus (microscope) ([5]; 48 hours after the addition of the sample solution, 25° C. incubation): this form change is suppressed | logTCID50 ([5]; AZADO-Oxo added, 25° C. incubation (no AZADO-Oxo: 5.2)): 2.4 | TCID50 ([5]; AZADO-Oxo added, 25° C. incubation (no AZADO-Oxo: 142262)): 253 | Positive rate (CPE) ([5]; AZADO-Oxo added, 25° C. incubation, viral load 10^−1): 0% | Number of wells when CPE is positive ([5]; AZADO-Oxo added, 25° C. incubation, viral load 10^−1, 8 wells): 0 | Positive rate (CPE) ([5]; AZADO-Oxo added, 25° C. incubation, viral load 10^−2): 0% | Number of wells when CPE is positive ([5]; AZADO-Oxo added, 25° C. incubation, viral load 10^−2, 8 wells): 0 | Positive rate (CPE) ([5]; AZADO-Oxo added, 25° C. incubation, viral load 10^−3): 0% | Number of wells when CPE is positive ([5]; AZADO-Oxo added, 25° C. incubation, viral load 10^−3, 8 wells): 0 | Positive rate (CPE) ([5]; AZADO-Oxo added, 25° C. incubation, viral load 10^−4): 0% | Number of wells when CPE is positive ([5]; AZADO-Oxo added, 25° C. incubation, viral load 10^−4, 8 wells): 0 | Positive rate (CPE) ([5]; AZADO-Oxo added, 25° C. incubation, viral load 10^−5): 0% | Number of wells when CPE is positive ([5]; AZADO-Oxo added, 25° C. incubation, viral load 10^−5, 7 wells): 0 | Positive rate (CPE) ([5]; AZADO-Oxo added, 25° C. incubation, viral load (relative value) 1): 0% | Number of wells when CPE is positive ([5]; AZADO-Oxo added, 25° C. incubation, viral load (relative value) 1, 7 wells): 0 | cell viability (WST-8 method) [6]: recovered the cell viability to the same level as the blank | band of OVA in supernatant (CBB staining) ([7]; 1 mg catalyst support or 3 μL of 100 mM AZADO-Oxo): almost eliminated | band of OVA in supernatant (CBB staining), unsupported AZADO ([7]; 2.5 μL of 100 mM AZADO-Oxo, with or without 2.5 μL of 100 mM cocatalyst): elimination of a band of OVA (protein degradation activity) was confirmed | final concentration at which a remarkable inactivation effect was observed ([8]; Escherichia coli, 15 minutes contact): ≥ 100 PM | colony forming unit ([8]; final concentration 0.001 mM (0 mM: 1.21 × 10^8)): 1.28 × 10^8 CFU/mL | CFU relative value ([8]; final concentration 0.001 mM): 105 | Number of colonies ([8]; final concentration 0.001 mM, room temperature 15 minutes (0 mM: 303)): 319 | colony forming unit ([8]; final concentration 0.01 mM): 1.25 × 10^8 CFU/mL | CFU relative value ([8]; final concentration 0.01 mM): 103 | Number of colonies ([8]; final concentration 0.01 mM, room temperature 15 minutes): 313 | colony forming unit ([8]; final concentration 0.1 mM): 6.04 × 10^7 CFU/mL | CFU relative value ([8]; final concentration 0.1 mM): 50 | Number of colonies ([8]; final concentration 0.1 mM, room temperature 15 minutes): 151 | colony forming unit ([8]; final concentration 1 mM): 0 CFU/mL | sterilization effect ([8]; final concentration 1 mM or more): ≥ 99% | CFU relative value ([8]; final concentration 1 mM): 0 | Number of colonies ([8]; final concentration 1 mM, room temperature 15 minutes): 0 | colony forming unit ([8]; final concentration 10 mM): 0 CFU/mL | CFU relative value ([8]; final concentration 10 mM): 0 | Number of colonies ([8]; final concentration 10 mM, room temperature 15 minutes): 0 | shift of fluorescence peak (binding amount between spike protein and ACE2) [9]: shifted to the left depending on the amount of AZADO-Oxo added

F[B-](F)(F)F.O=[N+]1C2CC3CC(C2)CC1C3 [AZADO^+BF4^−]
activity compared among the compounds (peak shift, MFI) [2]: almost equally strong | antiviral activity (MFI) on extended treatment time [2]: showed higher antiviral activity

CC1(C)CCCC(C)(C)N1[O] [TEMPO, 2,2,6,6-tetramethylpiperidine-N-oxyl]
standard redox potential (E^0@25° C.) between the nitroxyl radical form and the oxoammonium form [1]: 294 mV

O=[N+]([O-])[O-].[Ag+] [silver nitrate, reference compound]
cell viability (WST-8 method) [3]: such a phenomenon was not observed

copper(II) nitrate
viable cell ratio [10]: did not decrease to 0% | viable cell ratio [11]: did not decrease after 5 minutes from the addition | viable cell ratio [12]: started to increase after 5 minutes from the addition
